Source: publication PMC5130295, “Structural basis for the disaggregase activity and regulation of Hsp104” (eLife, 2016)

Assays:
CtHsp104 [1] = target: T1, CtHsp104 (Thermochaetoides thermophila, UniProt G0S4G4, D295A/E296A); experiment: X-ray crystal structure, […] Å; format: binding; conditions: ADP bound in AAA1 and AAA2 active sites; incubated with ADP and AlF3, 3 mM each; pH 5.8
T1 construct: gene CTHT_0022720; full-length, synthetic gene, pET21a, C-terminal His6 tag, E. coli; NTD not visible in the crystal structure
T1 sequence (G0S4G4 entry or part of it D295A/E296A): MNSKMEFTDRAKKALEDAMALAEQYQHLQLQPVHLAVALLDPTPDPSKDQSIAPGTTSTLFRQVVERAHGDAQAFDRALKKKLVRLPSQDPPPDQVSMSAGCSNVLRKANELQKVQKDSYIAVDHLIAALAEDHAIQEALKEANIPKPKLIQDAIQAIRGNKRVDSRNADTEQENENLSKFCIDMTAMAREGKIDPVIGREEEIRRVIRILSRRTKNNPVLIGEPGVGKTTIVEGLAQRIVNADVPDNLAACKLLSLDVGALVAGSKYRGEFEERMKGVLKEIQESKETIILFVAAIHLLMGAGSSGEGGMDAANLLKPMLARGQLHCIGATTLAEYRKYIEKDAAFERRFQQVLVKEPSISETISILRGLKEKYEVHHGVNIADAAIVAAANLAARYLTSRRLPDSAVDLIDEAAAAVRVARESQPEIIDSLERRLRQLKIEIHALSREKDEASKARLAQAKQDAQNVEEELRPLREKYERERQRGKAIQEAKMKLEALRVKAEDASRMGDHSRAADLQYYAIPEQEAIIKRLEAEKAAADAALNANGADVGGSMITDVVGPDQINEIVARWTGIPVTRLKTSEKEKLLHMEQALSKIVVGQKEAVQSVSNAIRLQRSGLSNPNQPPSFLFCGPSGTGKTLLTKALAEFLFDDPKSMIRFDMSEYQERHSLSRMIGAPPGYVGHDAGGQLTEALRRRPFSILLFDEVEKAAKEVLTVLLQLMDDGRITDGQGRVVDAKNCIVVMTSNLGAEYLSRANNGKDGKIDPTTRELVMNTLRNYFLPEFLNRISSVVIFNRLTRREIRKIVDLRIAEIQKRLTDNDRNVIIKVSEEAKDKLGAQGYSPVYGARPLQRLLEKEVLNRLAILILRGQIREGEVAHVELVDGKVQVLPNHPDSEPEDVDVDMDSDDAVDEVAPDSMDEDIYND

CtHsp104 [2] = target: T2, CtHsp104 (Thermochaetoides thermophila, UniProt G0S4G4); experiment: coupled ATPase assay (pyruvate kinase / lactate dehydrogenase); format: biochemical; conditions: 5 mM MgCl2; varying ATP; Hill fit
T2 construct: gene CTHT_0022720; full-length, synthetic gene, pET21a, C-terminal His6 tag, E. coli; NTD not visible in the crystal structure
T2 sequence (G0S4G4 entry or part of it): as the sequence (G0S4G4 entry or part of it D295A/E296A) above, with A295D, A296E counted along it

ScHsp104 = target: T3, ScHsp104 (Saccharomyces cerevisiae, UniProt P31539); experiment: as above; format: biochemical; conditions: 5 mM MgCl2; varying ATP; Hill fit
T3 construct: gene HSP104; cloned from yeast genomic DNA, pET21a, C-terminal His6 tag, E. coli
T3 sequence (P31539 whole entry): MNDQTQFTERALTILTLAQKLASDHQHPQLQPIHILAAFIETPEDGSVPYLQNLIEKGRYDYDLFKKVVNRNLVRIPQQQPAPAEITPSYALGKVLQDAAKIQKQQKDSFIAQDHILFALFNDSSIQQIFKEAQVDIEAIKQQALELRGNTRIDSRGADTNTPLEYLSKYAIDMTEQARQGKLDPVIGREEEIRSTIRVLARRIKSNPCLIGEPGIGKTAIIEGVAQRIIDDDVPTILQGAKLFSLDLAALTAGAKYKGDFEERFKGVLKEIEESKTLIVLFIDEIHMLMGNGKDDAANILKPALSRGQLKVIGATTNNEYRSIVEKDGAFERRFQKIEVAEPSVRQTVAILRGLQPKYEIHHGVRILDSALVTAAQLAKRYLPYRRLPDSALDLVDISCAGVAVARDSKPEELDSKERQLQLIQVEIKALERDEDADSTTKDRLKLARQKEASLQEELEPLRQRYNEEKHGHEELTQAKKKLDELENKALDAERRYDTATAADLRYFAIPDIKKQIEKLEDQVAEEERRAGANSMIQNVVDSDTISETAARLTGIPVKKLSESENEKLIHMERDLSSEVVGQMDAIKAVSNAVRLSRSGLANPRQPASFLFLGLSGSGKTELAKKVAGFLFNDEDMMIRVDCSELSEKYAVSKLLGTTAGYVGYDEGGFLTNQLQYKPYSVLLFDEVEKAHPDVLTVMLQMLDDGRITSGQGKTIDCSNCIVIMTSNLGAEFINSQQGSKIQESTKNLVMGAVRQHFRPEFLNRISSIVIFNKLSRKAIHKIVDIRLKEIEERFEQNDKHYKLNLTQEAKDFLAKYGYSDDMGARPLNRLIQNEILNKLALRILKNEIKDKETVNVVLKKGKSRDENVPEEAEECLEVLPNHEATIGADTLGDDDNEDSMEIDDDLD

[3] = target: CtHsp104 catalytic inactive double Walker A mutant (Chaetomium thermophilum); experiment: SEC; SEC profiles with elution volumes of marker proteins
[4] = target: CtHsp104 double Walker B mutant (Chaetomium thermophilum); experiment: as above
[5] = target: Hsp104 disaggregase from Chaetomium thermophilum, wild type (Chaetomium thermophilum); experiment: as above

Nc1ncnc2c1ncn2[C@@H]1O[C@H](COP(=O)(O)OP(=O)(O)O)[C@@H](O)[C@H]1O [ADP]
X-ray crystal structure, 3.7 Å (CtHsp104 [1]): The crystal structure of the double Walker-B mutant in complex with ADP was determined

Nc1ncnc2c1ncn2[C@@H]1O[C@H](COP(=O)(O)OP(=O)(O)OP(=O)(O)O)[C@@H](O)[C@H]1O [ATP]
coupled ATPase assay (pyruvate kinase / lactate dehydrogenase) (CtHsp104 [2]): ATPase activity was determined by a coupled enzymatic reaction | coupled ATPase assay (pyruvate kinase / lactate dehydrogenase) (ScHsp104): ATPase and GFP unfolding activity of wt and ΔPS1 mutants of Ct and ScHsp104

CtHsp104 catalytic inactive double Walker A mutant (natural protein)
stoichiometry N [3]: 6

CtHsp104 double Walker B mutant (natural protein)
stoichiometry N [4]: 6

Hsp104 disaggregase from Chaetomium thermophilum, wild type (natural protein)
stoichiometry N [5]: 6
